# Experimental data as given in publication PMC11251039, “Harnessing cholesterol uptake of malaria parasites for therapeutic applications” (EMBO Molecular Medicine, 2024).
# Values joined by “and” are separate entries in the source; they are usually repeats but may differ in a detail not shown here. Identical values can stand only once. Like-named read-outs stand apart in the source and are kept apart here.
# Tests used:
# [1] = system: human embryonic kidney cells (HEK293); test: Human embryonic kidney cell viability assay (MTT); format: cell-based; conditions: Homo sapiens; 96 h, HEK293; read-out: IC50, human embryonic kidney cell inhibition (viability)
# Method: HEK293 cell viability assays commenced with 5000 cells per well. 10 µg/mL cycloheximide was used as a no-growth control. Metabolic capacity (indicating viability) was measured in an absorbance microplate reader after incubation with 0.45 mg/mL methylthiazolyldiphenyl-tetrazolium bromide (MTT; Sigma M2128) for 2 h followed by crystal solubilisation in SDS. […]
# Human Embryonic Kidney Cell Viability Assays:
# Human Embryonic Kidney Cell (HEK293) culture:
# The HEK293 cell line was maintained under routine culture conditions in DMEM containing 3.7 g/L NaHCO3 supplemented with 10% FBS, 200 μM glutamine, 100 units/mL penicillin, and 100 μg/mL streptomycin at 37 °C in a humidified 5% CO2 incubator.
# Cells were detached from a flask using 0.25% Trypsin with 0.2 g/L EDTA (Sigma T4049) and washed with culture media containing no phenol red. Cells were incubated with a serial dilution of each compound, or media/DMSO alone. The protein synthesis inhibitor cycloheximide (Sigma 01810) at 10 µg/mL was used as a positive control to determine background absorbance. 5,000 cells were seeded in each well. After 96 hours, 0.45 mg/mL methylthiazolyldiphenyl-tetrazolium bromide (MTT; Sigma M2128) was added and incubated for a further two hours, before mixing 1.1:1 with 10% w/v sodium dodecyl sulfate (SDS) to solubilise crystals and freezing the plate at -18 °C to stop the assay. […]
# [2] = system: human hepatoma cells (Huh7); test: Human hepatoma viability assay (CellTiter-Blue); format: cell-based; conditions: for Huh7 viability, dose-response data points (Figure 3F): replicate data points; for IC50: Homo sapiens, read-out: IC50, human hepatoma inhibition (viability)
# Method: Huh7 hepatoma viability assays were conducted in the same manner as the P. berghei assays, with metabolic capacity (indicating viability) measured with a fluorescence microplate reader after incubation with CellTiter-Blue® (Promega) for 3 h.
# Appendix Fraser/Curtis et al. […]
# Human Hepatoma Viability Assays:
# The Huh7 hepatoma cell line (ATCC) was maintained under routine culture conditions in Dulbecco's Modified Eagle Medium (DMEM) containing 3.7 g/L NaHCO3 supplemented with 10% foetal bovine serum (FBS), 100 units/mL penicillin, and 100 μg/mL streptomycin at 37 °C in a humidified 5% CO2 incubator.
# Viability assays were performed in parallel to the P. berghei growth inhibition. 10,000 Huh7 cells were seeded in 96-well and dark-sided microplates (Greiner Bio One) and cultured at 37°C, 5% CO2 and 80% humidity. The next day, the media was replaced with compounds or solvent controls (DMSO) serially diluted in culture media. Media was partially replaced with new drug dilutions over the following two days. After 48 hours, CellTiter-Blue® (Promega) was added according to the manufacturer’s instructions and incubated for 3 hours. Fluorescence intensity was measured with 530/25 ex and 590/20 em in a Synergy HTX plate reader (Agilent).
# [3] = system: asexual P. falciparum 3D7 wild-type parasites; test: P. falciparum asexual growth inhibition assay (SYBR Safe DNA replication); format: cell-based, Plasmodium falciparum; conditions: for P. falciparum asexual growth, percentage of control: replicate values, source data Fig. 2B; for IC50: Plasmodium falciparum, read-out: IC50, P. falciparum asexual growth inhibition
# Procedure, shortened: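 Sorbitol-synchronised ring-stage cultures at 1% parasitaemia and 1% haematocrit were exposed to 2-fold compound dilutions at 37 °C under microaerophilic conditions for 24, 48 or 72 h. Growth was read by SYBR Safe fluorescence of freeze-thaw lysates, with 200 nM chloroquine or artesunate defining background.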
compound,measurement,setting,value
CC(C)OC(=O)CCC(=O)O[C@H]1CC[C@H]2[C@@H]3CC=C4C[C@@H](O)CC[C@]4(C)[C@H]3CC[C@]12C [C-17-link],IC50,[1],43.6 µM
same,"Huh7 viability, dose-response data points (Figure 3F)","[2]; 0.015241580 uM, listed as HJB8a53, 0.0152416 µM",105.5 and 101.4 and 96.09 and 69.59 and 87 and 84.06 and 99.27 and 98.63 and 104.2
same,"Huh7 viability, dose-response data points (Figure 3F)","[2]; 0.045724740 uM, listed as HJB8a53, 0.0457247 µM",109.3 and 93.77 and 96.82 and 77.36 and 91.83 and 83.31 and 95.97 and 106.5 and 102.9
same,"Huh7 viability, dose-response data points (Figure 3F)","[2]; 0.137174210 uM, listed as HJB8a53, 0.137174 µM",96.08 and 92.35 and 97.06 and 75.41 and 90.39 and 89.79 and 95.73 and 112.9 and 104.7
same,"Huh7 viability, dose-response data points (Figure 3F)","[2]; 0.411522630 uM, listed as HJB8a53, 0.411523 µM",96.93 and 97.72 and 96.92 and 63.65 and 105.3 and 104.5 and 106.5 and 105.9 and 105.2
same,"Huh7 viability, dose-response data points (Figure 3F)","[2]; 1.234567900 uM, listed as HJB8a53, 1.23457 µM",100.4 and 99.21 and 88.68 and 67.97 and 84.85 and 96.13 and 101.8 and 95.29 and 104.3
same,"Huh7 viability, dose-response data points (Figure 3F)","[2]; 3.703703700 uM, listed as HJB8a53, 3.7037 µM",100.3 and 96.61 and 91.24 and 63.53 and 95.92 and 87.81 and 99.75 and 109.9 and 102.3
same,"Huh7 viability, dose-response data points (Figure 3F)","[2]; 11.111111100 uM, listed as HJB8a53, 11.1111 µM",99.33 and 105.1 and 91.64 and 77.62 and 94.71 and 84.32 and 94.43 and 111.6 and 102.6
same,"Huh7 viability, dose-response data points (Figure 3F)","[2]; 33.333333300 uM, listed as HJB8a53, 33.3333 µM",96.9 and 100.5 and 93.64 and 75.36 and 80.99 and 87.75 and 88.68 and 89.18 and 95.7
same,"Huh7 viability, dose-response data points (Figure 3F)","[2]; 100.000000000 uM, listed as HJB8a53, 100 µM",79.4 and 72.92 and 76.08 and 55.81 and 65.46 and 66.75 and 56.01 and 61.1 and 53.13
same,Cytotoxicity to human hepatoma cells,"[2]; 48 h, up to 100 µM",only modest cytotoxicity at high concentrations (>30 µM)
same,IC50,"[2]; Huh-7, 48 h",> 100 µM
same,"P. falciparum asexual growth, percentage of control","[3]; 1.562500000 uM, 24 h, listed as HJB8a53",108.2% and 98.65% and 104.4% and 77.73% and 107.4% and 72.24% and 105.4% and 89.91% and 101.4%
same,"P. falciparum asexual growth, percentage of control","[3]; 3.125000000 uM, 24 h, listed as HJB8a53",87.28% and 79.93% and 102.9% and 88.97% and 110.9% and 91.2% and 98.89% and 92.59% and 99.55%
same,"P. falciparum asexual growth, percentage of control","[3]; 6.250000000 uM, 24 h, listed as HJB8a53",91.48% and 91.92% and 90.32% and 56.7% and 84% and 91.24% and 89.81% and 87.22% and 88.93%
same,"P. falciparum asexual growth, percentage of control","[3]; 12.500000000 uM, 24 h, listed as HJB8a53",92.85% and 68.5% and 79.1% and 86.73% and 62.26% and 77.95% and 77.18% and 79.4% and 77.07%
same,"P. falciparum asexual growth, percentage of control","[3]; 25.000000000 uM, 24 h, listed as HJB8a53",63.84% and 71.98% and 51.99% and 71.68% and 75.89% and 90.82% and 60.89% and 60.24% and 75.04%
same,"P. falciparum asexual growth, percentage of control","[3]; 50.000000000 uM, 24 h, listed as HJB8a53",21.83% and 36.37% and 18.23% and 26.53% and 42.29% and 44.3% and 28.27% and 41.39% and 35.03%
same,"P. falciparum asexual growth, percentage of control","[3]; 100.000000000 uM, 24 h, listed as HJB8a53",3.756% and 9.306% and -2.555% and -31.33% and 5.372% and 1.633% and -19.35% and 8.501% and 11.78%
same,IC50,"[3]; 3D7, 24 h, 24 h, starting at ring stages",31.6 µM
same,IC50,"[3]; 3D7, 48 h, 48 h",40.2 µM
same,IC50,"[3]; 3D7, 72 h, 72 h",30.3 µM
COc1cc(NC(C)CCCNC(=O)CCC(=O)OC(C)C)c2ncccc2c1 (centres unmarked) [PQ-link],IC50,[1],13.3 µM
same,"Huh7 viability, dose-response data points (Figure 3F)","[2]; 0.015241580 uM, listed as BC9B, 0.0152416 µM",107.3 and 97.91 and 99.21 and 88.27 and 85.99 and 85.17 and 77.48 and 99.67 and 102.9
same,"Huh7 viability, dose-response data points (Figure 3F)","[2]; 0.045724740 uM, listed as BC9B, 0.0457247 µM",101.4 (2×) and 102.9 and 96.11 and 84.48 and 82.6 and 86.76 and 77.19 and 99.77
same,"Huh7 viability, dose-response data points (Figure 3F)","[2]; 0.137174210 uM, listed as BC9B, 0.137174 µM",100.3 and 97.53 and 89.5 and 87.16 and 86.15 and 91.05 and 98.93 and 94.82
same,"Huh7 viability, dose-response data points (Figure 3F)","[2]; 0.411522630 uM, listed as BC9B, 0.411523 µM",98.17 and 99.16 and 96.93 and 83.82 and 84.25 and 87.07 and 70.92 and 100.4 and 90.7
same,"Huh7 viability, dose-response data points (Figure 3F)","[2]; 1.234567900 uM, listed as BC9B, 1.23457 µM",106.4 and 97.98 and 99.19 and 82.25 and 86.23 and 90.4 and 72.24 and 83.96 and 96.58
same,"Huh7 viability, dose-response data points (Figure 3F)","[2]; 3.703703700 uM, listed as BC9B, 3.7037 µM",96.27 and 98.44 and 90.47 and 77.12 and 78.19 and 82.37 and 76.62 and 90.94 and 92.11
same,"Huh7 viability, dose-response data points (Figure 3F)","[2]; 11.111111100 uM, listed as BC9B, 11.1111 µM",98.42 and 95.99 and 90.47 and 70.14 and 68.57 and 67.94 and 56.41 and 72.23 and 71.76
same,"Huh7 viability, dose-response data points (Figure 3F)","[2]; 33.333333300 uM, listed as BC9B, 33.3333 µM",79.4 and 75.47 and 83.67 and 39.88 and 39.61 and 43.08 and 30.62 and 36.38 and 34.72
same,"Huh7 viability, dose-response data points (Figure 3F)","[2]; 100.000000000 uM, listed as BC9B",33.18 and 40.69 and 39.77 and 19.19 and 19.87 and 20.01 and 9.61 and 11.04 and 10.16
same,IC50,"[2]; Huh-7, 48 h, Huh7",32.8 µM
same,"P. falciparum asexual growth, percentage of control","[3]; 0.390625000 uM, 24 h, listed as BC9B",112.3% and 89.93% and 91.19% and 112.1% and 102.3% and 68.21% and 112.6% and 108.2% and 99.03%
same,"P. falciparum asexual growth, percentage of control","[3]; 0.781250000 uM, 24 h, listed as BC9B",111.4% and 122.1% and 101.9% and 105.4% and 82.4% and 103% and 111.6% and 99.14% and 89.9%
same,"P. falciparum asexual growth, percentage of control","[3]; 1.562500000 uM, 24 h, listed as BC9B",124.5% and 109.9% and 95.57% and 96.52% and 118.5% and 100.1% and 113.4% and 107.6% and 105.7%
same,"P. falciparum asexual growth, percentage of control","[3]; 3.125000000 uM, 24 h, listed as BC9B",111% and 101.9% and 103% and 119.5% and 108.6% and 102.2% and 109.1% and 102.4% and 93.98%
same,"P. falciparum asexual growth, percentage of control","[3]; 6.250000000 uM, 24 h, listed as BC9B",79.77% and 100.5% and 104.2% and 100.4% and 95.65% and 80.04% and 97.39% and 93.98% and 89.23%
same,"P. falciparum asexual growth, percentage of control","[3]; 12.500000000 uM, 24 h, listed as BC9B",91.36% and 89.64% and 70.76% and 87.57% and 76.11% and 68.83% and 96.23% and 85.41% and 71.02%
same,"P. falciparum asexual growth, percentage of control","[3]; 25.000000000 uM, 24 h, listed as BC9B",68.25% and 69.29% and 40.14% and 53.66% and 42.59% and 27.83% and 74.48% and 57.35% and 79.45%
same,"P. falciparum asexual growth, percentage of control","[3]; 50.000000000 uM, 24 h, listed as BC9B",54.3% and 2.851% and -9.844% and -3.605% and -29.04% and -23.19% and 22.95% and 7.441% and 8.158%
same,IC50,"[3]; 3D7, 48 h",21.9 µM
same,IC50,"[3]; 3D7, 72 h",16.1 µM
same,IC50,"[3]; 3D7, 24 h, starting at ring stages",25.2 µM
